In general, IC50 refers to the point on the concentration scale where inhibition reaches its midpoint. A lower IC50 goes with greater potency.

Holding throughout (type): functional, cell-based
The subject of one test is LNCaP. Nature of the test: Cytotoxicity against human LNCAP cells after 72 hrs by SRB assay. For orientation: In SRB staining, fixed cells bind dye roughly in proportion to their protein.
A further test deals with MCF7. Nature of the test: Cytotoxicity against human MCF7 cells after 72 hrs by SRB assay. Particulars: MCF7, 72 h.
The subject of the next test is KB. Nature of the test: Cytotoxicity against human KB cells after 72 hrs by SRB assay.
Another test has as its system HepG2. As to the kind of experiment: Cytotoxicity against human HepG2 cells after 72 hrs by SRB assay. Conditions: HepG2, 72 h.
In another test the test system is SK-MEL-2. As to the kind of experiment: Cytotoxicity against human SK-MEL-2 cells after 72 hrs by SRB assay. Conditions: SK-MEL-2, 72 h.

For `C=C(C)CCC(O)[C@]1(C)OC(=O)[C@]23CC[C@H]4C(=CC[C@H]5C(C)(C)[C@@H](O[C@@H]6OC[C@@H](O)[C@H](O)[C@H]6O[C@@H]6O[C@H](CO)[C@@H](O)[C@H](O)[C@H]6O)CC[C@]45C)[C@]2(C)CC[C@H]13` (stereo partly drawn), the IC50 in the test on LNCaP is 51.6 µM; in the test on MCF7 it was 41.9 µM; in the test with KB, 33.5 µM; with HepG2, 37.9 µM; in the test with SK-MEL-2, 43.5 µM.

Take `Cc1c2ccncc2c(C)c2c1[nH]c1ccccc12` [ELLIPTECINE]: the IC50 in the test on LNCaP stood at 1.95 µM; in the test with KB, 1.79 µM; in the test on SK-MEL-2, 1.91 µM.

In the case of `C=C(C)CCC(O)[C@]1(C)OC(=O)[C@]23CC[C@H]4C(=CC[C@H]5C(C)(C)[C@@H](O[C@@H]6OC[C@@H](O)[C@H](O)[C@H]6O[C@@H]6O[C@H](CO)[C@@H](OS(=O)(=O)O)[C@H](O)[C@H]6O)CC[C@]45C)[C@]2(C)CC[C@H]13` (stereo partly drawn), the IC50 came out at 51.5 µM in the test with LNCaP; 59.5 µM in the test with MCF7; 45.4 µM in the test with KB; 55.3 µM in the test on HepG2; 67.2 µM in the test with SK-MEL-2.

With `C=C(C)C[C@@H](C[C@]1(C)OC(=O)[C@]23CC[C@H]4C(=CC[C@H]5C(C)(C)[C@@H](O[C@@H]6OC[C@@H](O)[C@H](O)[C@H]6O[C@@H]6OC[C@@H](O)[C@H](O)[C@H]6O)CC[C@]45C)[C@]2(C)CC[C@@H]31)OC(C)=O`, the IC50 amounted to 3.13 µM with LNCaP; 2.11 µM in the test on MCF7; 2.36 µM in the test with KB; 1.92 µM in the test with HepG2; 2.27 µM with SK-MEL-2.

Consider `C=C(C)C[C@@H](C[C@]1(C)OC(=O)[C@]23CC[C@H]4C(=CC[C@H]5C(C)(C)[C@@H](O[C@@H]6OC[C@@H](O)[C@H](O)[C@H]6O[C@@H]6O[C@H](CO)[C@@H](O)[C@H](O)[C@H]6O)CC[C@]45C)[C@]2(C)CC[C@@H]31)OC(C)=O`, for which the IC50 is 10.1 µM in the test with LNCaP; 7.25 µM with MCF7; 11 µM in the test with KB; 7.03 µM in the test on HepG2; 10.8 µM in the test on SK-MEL-2.

Turning to `CC(=O)O[C@@H](CC(C)C)C[C@]1(C)OC(=O)[C@]23CC[C@H]4C(=CC[C@H]5C(C)(C)[C@@H](O[C@@H]6OC[C@@H](O)[C@H](O)[C@H]6O[C@@H]6O[C@H](CO)[C@@H](O)[C@H](O)[C@H]6O)CC[C@]45C)[C@]2(C)CC[C@@H]31`, the IC50 in the test with LNCaP is 7.6 µM; in the test on MCF7 it was 6.36 µM; with KB it was 8.86 µM; in the test on HepG2, 5.28 µM; in the test with SK-MEL-2, 5.77 µM.

With `CC(=O)O[C@@H](CC(C)C)C[C@]1(C)OC(=O)[C@]23CC[C@H]4C(=CC[C@H]5C(C)(C)[C@@H](O[C@@H]6OC[C@@H](O)[C@H](O)[C@H]6O[C@@H]6O[C@H](C)[C@@H](O)[C@H](O)[C@H]6O)CC[C@]45C)[C@]2(C)CC[C@@H]31`, the IC50 with LNCaP turned out to be 3.02 µM; in the test on MCF7 it was 2.12 µM; in the test with KB, 2.82 µM; in the test on HepG2 it was 2.97 µM; in the test on SK-MEL-2, 2.7 µM.

For `CC(C)C[C@H](O)C[C@]1(C)OC(=O)[C@]23CC[C@H]4C(=CC[C@H]5C(C)(C)[C@@H](O[C@@H]6OC[C@@H](O)[C@H](O)[C@H]6O[C@@H]6OC[C@@H](O)[C@H](O)[C@H]6O)CC[C@]45C)[C@]2(C)CC[C@@H]31`, the IC50 in the test with LNCaP is 59.3 µM; in the test on MCF7, 52.2 µM; in the test with KB, 48.4 µM; with HepG2 it was 53.8 µM; with SK-MEL-2, 41.9 µM.

As to `CC(=O)O[C@@H](CC(C)C)C[C@]1(C)OC(=O)[C@]23CC[C@H]4C(=CC[C@H]5C(C)(C)[C@@H](O[C@@H]6OC[C@@H](O)[C@H](O)[C@H]6O[C@@H]6OC[C@@H](O)[C@H](O)[C@H]6O)CC[C@]45C)[C@]2(C)CC[C@@H]31`, the IC50 in the test on LNCaP stood at 2.7 µM; with MCF7, 2.08 µM; in the test on KB it was 3.11 µM; in the test with HepG2, 2.04 µM; in the test with SK-MEL-2, 2.21 µM.

Source of the values: ChEMBL document CHEMBL4033701, “Cytotoxic triterpene diglycosides from the sea cucumber Stichopus horrens” (Bioorg Med Chem Lett, 2017).
